Results published in patent US4315939A, “Piperidine derivatives of 4,5-dialkyl-3-hydroxy-pyrrole-2-carboxylic acid esters, pharmaceutical formulations containing these compounds and use in treating cardiac arrhythmias” (priority 1979, dated 1982).
Counter-ions that a name gives are not always drawn.

Assays:
Type in all cases: in vivo, rats (Sprague Dawley)
[1] = system: aconitine-induced arrhythmia of rats; assay: Anti-arrhythmic effect on aconitine-induced arrhythmia in rats, oral administration; details: for ED50 / Emax: Rattus norvegicus, po; for ED50: read-out: ED 50% (dose which lengthens the duration of aconitine infusion by 50%); for Emax: read-out: R.M.E. = relative maximum effect; for Maximum effect: lengthening of the duration of aconitine infusion, Δ%: at the maximum tolerated dose, oral, rats; for anti-arrhythmic activity compared with Prajmalium: in words, aconitine-induced arrhythmia of rats; for R.A. = relative activity: relative to Prajmalium = 1.00, from ED 50%
Protocol: (§1) To determine the anti-arrhythmic activity, the substances are administered orally to rats (Sprague Dawley, weight 200-250 g), 45 minutes before narcosis.
(§2) The animals are narcotized with sodium thiobutabarbital (100 mg/kg administered intraperitoneally). The arrhythmogenic substance used is aconitine, which is infused intravenously, at a rate of 0.005 mg/kg×min 60 minutes after the administration of the anti-arrhythmicagent. In untreated animals (N=52), arrhythmias manifest themselves in the electrocardiogram (ECG) after 2.74±0.07 min, and the occurrence of these can be delayed by the anti-arrhythmic agents, the delay being dependent on the dose.
The dose which lengthens the duration of infusion up to the occurrence of arrhythmias by 50%, namely the ED 50%, is determined from the linear relationships between log dose (mg/kg) of the test substance and the relative increase in the duration of aconitine infusion (Δ%).
(§3) For further characterization of the substances, the anti-arrhythmic effect of the maximum tolerated dose is determined from the decimal-geometric dose progression (factor 3.cuberoot.10) employed in the experiments. Furthermore, the dose at which toxic symptoms (changes in the initial ECG, cyanosis and cramps) occur is determined.
^(1) Dose which lengthens the duration of aconitine infusion by 50%
^(2) R.A. = relative activity. Prajmalium = 1.00
(§4) ^(3) Effect of the maximum tolerated dose
^(4) Lengthening of the duration of aconitin infusion, Δ %
^(5) R.M.E. = relative maximum effect, Prajmalium = 1.00

[2] = Toxicity / toleration in rats (changes in the initial ECG, cyanosis and cramps), oral administration; parameters: Toxicity: Dose whose administration produces the first toxic symptoms: unit: mg/kg; details: rat, in vivo; oral, rats; mg/kg printed only over the effective dose columns and in b40 (log dose); read-out: Maximum effect: Dose (maximum tolerated dose)
Protocol: as §1, §2, §3, §4
(§5) ^(6) Dose whose administration produces the first toxic symptoms

rats = assay: as above; parameters: Toxicity: Dose whose administration produces the first toxic symptoms: unit: mg/kg; details: for Toxicity: Dose whose administration produces the first toxic symptoms / Q (therapeutic range, quotient of the toxic dose and the ED 50%): oral, rats; for Toxicity: Dose whose administration produces the first toxic symptoms: mg/kg printed only over the effective dose columns and in b40 (log dose); for Q (therapeutic range, quotient of the toxic dose and the ED 50%): toxic dose / ED 50%
Protocol: as §1, §2, §3, §4, §5

Row | Structure (SMILES) | ED50 [1] [mg/kg] | Emax [1] [%] | Maximum effect: lengthening of the duration of aconitine infusion, Δ% [1] [%] | anti-arrhythmic activity compared with Prajmalium [1] | R.A. = relative activity [1] | MTD [2] [mg/kg] | Toxicity: Dose whose administration produces the first toxic symptoms (rats) | Q (therapeutic range, quotient of the toxic dose and the ED 50%) (rats) | toxic dose compared with Prajmalium (rats; in words)
1 | CCOC(=O)c1[nH]c(C)c(C)c1OCC(O)CN1CCC(O)(c2ccc(F)cc2)CC1 (centres unmarked) [Example 13, 3-[2-hydroxy-3-(4-(p-fluorophenyl)-4-hydroxy-piperidino)-propoxy]-4,5-dimethylpyrrole-2-carboxylic acid ethyl ester] | 5.93 | 86 | 149 | as active as Prajmalium | 0.84 | 21.5 | 46.4 | 7.8 | –
2 | COC(=O)c1[nH]c(C)c(C)c1OCCCN1CCC(O)(c2ccccc2)CC1 [Example 6, 3-[3-(4-phenyl-4-hydroxy-piperidino)-propoxy]-4,5-dimethylpyrrole-2-carboxylic acid methyl ester] | 3.68 | 87 | 152 | surpass the latter | 1.36 | 10 | 21.5 | 5.8 | of equal toxicity to Prajmalium
3 | CCOC(=O)c1[nH]c(C)c(C)c1OCC(O)CN1CCC(O)(c2ccccn2)CC1 (stereo not drawn) [Example 1, 3-[2-hydroxy-3-(4-α-pyridyl-4-hydroxy-piperidino)-propoxy]-4,5-dimethyl-pyrrole-2-carboxylic acid ethyl ester dihydrochloride] | 7.8 | 186 | 324 | – | 0.64 | 46.4 | 100 | 13 | –
4 | CCC[N+]12C(O)C(CC)C3CC1C1N(C)c4ccccc4C14CC2C3C4O (centres unmarked) [Prajmalium, N-propylajmalin, reference compound] | 4.99 | 100 | 174 | – | 1.00 | 10 | 21.5 | 4.3 | –
5 | COC(=O)c1[nH]c(C)c(C)c1OCC(O)CN1CCC(O)(c2ccccc2)CC1 (centres unmarked) [Example 19, 3-[2-hydroxy-3-(4-phenyl-4-hydroxy-piperidino)-propoxy]-4,5-dimethyl-pyrrole-2-carboxylic acid methyl ester] | 3.38 | 174 | 302 | surpass the latter | 1.48 | 21.5 | 46.4 | 14 | –
6 | COC(=O)c1[nH]c(C)c(C)c1OCCCCN1CCC(O)(c2ccccc2)CC1 [Example 11, 3-[4-(4-phenyl-4-hydroxy-piperidino)-butoxy]-4,5-dimethylpyrrole-2-carboxylic acid methyl ester] | 5.54 | 177 | 308 | as active as Prajmalium | 0.90 | 21.5 | 46.4 | 8.4 | –
7 | COC(=O)c1[nH]c(C)c(C)c1OCC(O)CN1CCC(O)(c2ccccn2)CC1 (stereo not drawn) [Example 7, 3-[2-hydroxy-3-(4-α-pyridyl-4-hydroxy-piperidino)-propoxy]-4,5-dimethylpyrrole-2-carboxylic acid methyl ester] | 13.5 | 176 | 307 | – | 0.37 | 46.4 | 100 | 7.4 | –
8 | CCOC(=O)c1[nH]c(C)c(C)c1OCC(O)CN1CCC(O)(c2ccccc2)CC1 (centres unmarked) [Example 2, 3-[2-hydroxy-3-(4-phenyl-4-hydroxy-piperidino)-propoxy]-4,5-dimethyl-pyrrole-2-carboxylic acid ethyl ester hydrochloride] | 6.23 | 98 | 170 | as active as Prajmalium | 0.80 | 21.5 | 46.4 | 7.5 | –
9 | CCCCc1c(C)[nH]c(C(=O)OCC)c1OCC(O)CN1CCC(O)(c2ccccc2)CC1 (centres unmarked) [Example 21, 3-[2-hydroxy-3-(4-phenyl-4-hydroxy-piperidino)-propoxy]-4-n-butyl-5-methyl-pyrrole-2-carboxylic acid ethyl ester] | 9.85 | 99 | 173 | – | 0.51 | 46.4 | 100 | 10 | –
10 | CCOC(=O)c1[nH]c(C)c(C)c1OCCN1CCC(O)(c2ccccc2)CC1 [Example 10, 3-[2-(4-phenyl-4-hydroxy-piperidino)-ethoxy]-4,5-dimethylpyrrole-2-carboxylic acid ethyl ester] | 2.99 | 199 | 347 | surpass the latter | 1.67 | 21.5 | 46.4 | 16 | –
